Test results taken from paper PMC7900114, “Three-dimensional structure of human cyclooxygenase (hCOX)-1” (Scientific Reports, 2021).

How the values were obtained:
oCOX-1 = target: T1, oCOX-1 (Ovis aries, UniProt P05979); conditions: enzyme specific activity in the presence of arachidonic acid 100 µM and the inhibitor
T1 sequence (P05979 25-600): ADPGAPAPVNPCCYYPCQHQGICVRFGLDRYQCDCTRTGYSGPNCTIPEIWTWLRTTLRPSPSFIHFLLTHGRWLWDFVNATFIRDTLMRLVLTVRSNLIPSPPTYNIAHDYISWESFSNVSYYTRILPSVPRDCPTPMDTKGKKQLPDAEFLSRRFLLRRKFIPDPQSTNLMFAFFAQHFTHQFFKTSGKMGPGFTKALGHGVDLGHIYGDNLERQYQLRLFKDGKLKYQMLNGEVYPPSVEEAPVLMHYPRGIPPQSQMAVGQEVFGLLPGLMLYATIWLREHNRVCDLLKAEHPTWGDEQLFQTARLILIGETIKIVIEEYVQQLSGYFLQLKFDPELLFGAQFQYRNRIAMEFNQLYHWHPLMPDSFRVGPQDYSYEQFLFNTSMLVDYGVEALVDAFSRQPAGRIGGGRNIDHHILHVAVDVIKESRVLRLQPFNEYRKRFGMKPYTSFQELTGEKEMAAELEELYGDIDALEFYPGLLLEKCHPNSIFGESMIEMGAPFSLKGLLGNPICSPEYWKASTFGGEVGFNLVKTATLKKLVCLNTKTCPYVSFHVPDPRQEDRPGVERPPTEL
Experimental: (§1) Functional analysis of ovine and human COX-1 catalytic activity was determined by monitoring O2 consumption by using an Oxytherm electrode unit (Hansatech), in the presence of arachidonic acid and different inhibitors. The instrument is equipped with a Clark-type oxygen electrode to monitor the dissolved oxygen concentration in a sealed measurement chamber over the time. Oxygen consumption was measured at 37 °C directly in a 1000 µL reaction vessel. Briefly, it follows the description of a typical assay: Oxygraph buffer (the opportune volume is adjusted to 1000 µL of final volume according to the volume of the protein), 5 µM hemin (1 µL), 100 µM arachidonic acid (20 µL) and inhibitor (10 µL) at the opportune concentrations.
(§2) Oxygen consumption determination (μmol/ml O2) started after the addition of the ovine or human COX-1/Sf9 sonicated pellet (C = 2.6 mg/ml) to the mixture containing Oxygraph buffer, arachidonic acid and test compounds at the opportune concentrations. Assay mixture was allowed to equilibrate in the reaction vessel at 37 °C for several minutes until steady baseline was recorded. Uninfected Sf9 sonicated cells were used as a negative control. Stock solutions were prepared in a minimum volume of vehicle (DMSO).

hCOX-1 = hCOX-1 (Homo sapiens, UniProt P23219); conditions: enzyme specific activity in the presence of arachidonic acid 100 µM and the inhibitor
Experimental: as §1, §2

Chain of hCOX-1 (P23219 24-599): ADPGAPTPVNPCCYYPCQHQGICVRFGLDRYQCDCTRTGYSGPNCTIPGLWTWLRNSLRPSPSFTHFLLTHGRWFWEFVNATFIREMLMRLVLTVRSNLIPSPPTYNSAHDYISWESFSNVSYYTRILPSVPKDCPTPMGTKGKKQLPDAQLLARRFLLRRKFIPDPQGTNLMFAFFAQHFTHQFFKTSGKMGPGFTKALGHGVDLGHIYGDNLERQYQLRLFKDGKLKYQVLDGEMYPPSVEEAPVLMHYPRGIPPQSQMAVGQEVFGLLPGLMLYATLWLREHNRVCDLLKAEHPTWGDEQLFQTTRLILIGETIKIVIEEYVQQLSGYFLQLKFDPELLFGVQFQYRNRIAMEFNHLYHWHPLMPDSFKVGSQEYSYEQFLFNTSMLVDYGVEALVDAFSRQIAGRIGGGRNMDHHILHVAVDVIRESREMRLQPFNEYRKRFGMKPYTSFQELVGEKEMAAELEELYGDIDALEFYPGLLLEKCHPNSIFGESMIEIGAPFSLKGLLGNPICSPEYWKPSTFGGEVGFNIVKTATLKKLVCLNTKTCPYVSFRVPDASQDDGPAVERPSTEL

`COc1ccc(-c2noc(CC(=O)O)c2-c2ccc(OC)cc2)cc1` [mofezolac] was tested, and the “Specific activity oCOX-1” value (oCOX-1) was 3.5 µmol/min/mg and the “Specific activity hCOX-1” value (hCOX-1) was 4.5 µmol/min/mg.
